{
  "source": "paper PMC4581723",
  "about": "“Evaluation of In Vitro Activity of the Class I PI3K Inhibitor Buparlisib (BKM120) in Pediatric Bone and Soft Tissue Sarcomas” (PLoS ONE, 2015)",
  "key": {"TC-32": {"test_system": "TC-32", "assay": "Cell viability assay (MTT), 72 h", "type": "cell-based", "conditions": "Homo sapiens, TC-32 (ES), PIK3CA WT, read-out: Buparlisib cell viability IC50"}, "6647": {"test_system": "6647", "assay": "Cell viability assay (MTT), 72 h", "type": "cell-based", "conditions": "6647 (ES), PIK3CA WT, read-out: Buparlisib cell viability IC50"}, "A673": {"test_system": "A673", "assay": "Cell viability assay (MTT), 72 h", "type": "cell-based", "conditions": "Homo sapiens, A673 (ES), PIK3CA WT, read-out: Buparlisib cell viability IC50"}, "RDES": {"test_system": "RDES", "assay": "Cell viability assay (MTT), 72 h", "type": "cell-based", "conditions": "RD-ES, PIK3CA WT, read-out: Buparlisib cell viability IC50"}, "SKES": {"test_system": "SKES", "assay": "Cell viability assay (MTT), 72 h", "type": "cell-based", "conditions": "SKES (ES), PIK3CA WT, read-out: Buparlisib cell viability IC50"}, "TTC-475": {"test_system": "TTC-475", "assay": "Cell viability assay (MTT), 72 h", "type": "cell-based", "conditions": "TTC-475 (ES), PIK3CA WT, read-out: Buparlisib cell viability IC50"}, "KHOS 240S": {"test_system": "KHOS 240S", "assay": "Cell viability assay (MTT), 72 h", "type": "cell-based", "conditions": "KHOS 240S (OS), read-out: Buparlisib cell viability IC50"}, "KHOS 312H": {"test_system": "KHOS 312H", "assay": "Cell viability assay (MTT), 72 h", "type": "cell-based", "conditions": "KHOS 312H (OS), read-out: Buparlisib cell viability IC50"}, "OS 187": {"test_system": "OS 187", "assay": "Cell viability assay (MTT), 72 h", "type": "cell-based", "conditions": "OS 187 (OS), read-out: Buparlisib cell viability IC50"}, "SJSA": {"test_system": "SJSA", "assay": "Cell viability assay (MTT), 72 h", "type": "cell-based", "conditions": "SJSA (OS), PIK3CA WT, read-out: Buparlisib cell viability IC50"}, "HT161": {"test_system": "HT161", "assay": "Cell viability assay (MTT), 72 h", "type": "cell-based", "conditions": "HT161 (OS), PIK3CA WT, read-out: Buparlisib cell viability IC50"}, "phospho-Akt (S473)": {"test_system": "phospho-Akt (S473)", "assay": "Immunoblot (quantitative) of Akt phosphorylation", "type": "cell-based", "conditions": "for IC50: 1 h treatment", "experimental": "Cells were incubated for approximately one hour on ice in lysis buffer (50 mM Tris pH 7.6, 0.5% NP-40, 10% glycerol, 30 mM NaCl, 1 mM EDTA) supplemented with Complete Mini EDTA-free protease inhibitor cocktail (Roche), 1 mM Na3VO4, and 1 mM NaF. […] Secondary antibodies conjugated to HRP were sheep anti-mouse IgG from GE Healthcare and goat anti-rabbit IgG from Santa Cruz Biotechnology. Secondary antibodies conjugated to infrared dyes were IRDye 800CW goat anti-mouse IgG and IRDye 680RD goat anti-rabbit IgG from LI-COR Biosciences. Fluorescent westerns were imaged using the Odyssey Infrared Imaging System (LI-COR Biosciences). Signals were quantified by measuring the integrated intensity values of each band using Odyssey software (LI-COR Biosciences).\nWe next evaluated the ability of buparlisib to inhibit cellular signaling downstream of PI3K. Increasing doses were added to cells and phosphorylation of signaling molecules was examined by immunoblot after one hour of treatment (Fig 2A). […] Phospho-Akt levels were normalized to levels of total Akt and fit to dose-response curves to calculate the half maximal inhibitory concentration (IC50) (Fig 2B).\nEach data point represents the average of at least three independent experiments."}, "[1]": {"test_system": "pediatric sarcoma cell lines", "assay": "Cell viability assay (MTT), panel of sarcoma cell lines", "type": "cell-based"}, "PI3K": {"test_system": "PI3K", "design": "method as in PMID 22188813", "conditions": "cited from earlier work"}},
  "note": "Like-named read-outs stand apart in the source and are kept apart here.",
  "data": [
    {"smiles": "Nc1cc(C(F)(F)F)c(-c2cc(N3CCOCC3)nc(N3CCOCC3)n2)cn1", "note": "[Buparlisib]", "values": [
      {"measurement": "IC50", "setting": "TC-32", "result": 972, "unit": "nM"},
      {"measurement": "IC50", "setting": "6647", "result": 1010, "unit": "nM"},
      {"measurement": "IC50", "setting": "A673", "result": 1780, "unit": "nM"},
      {"measurement": "IC50", "setting": "RDES", "result": 1120, "unit": "nM"},
      {"measurement": "IC50", "setting": "SKES", "result": 822, "unit": "nM"},
      {"measurement": "IC50", "setting": "TTC-475", "result": 1020, "unit": "nM"},
      {"measurement": "IC50", "setting": "KHOS 240S", "result": 1170, "unit": "nM"},
      {"measurement": "IC50", "setting": "KHOS 312H", "result": 1590, "unit": "nM"},
      {"measurement": "IC50", "setting": "OS 187", "result": 1540, "unit": "nM"},
      {"measurement": "IC50", "setting": "SJSA", "result": 1450, "unit": "nM"},
      {"measurement": "IC50", "setting": "HT161", "result": 1080, "unit": "nM"},
      {"measurement": "IC50", "setting": "phospho-Akt (S473); 1 h, 6647 (ES), phospho-Akt S473 normalized to total Akt, read-out: Buparlisib Akt phosphorylation IC50", "result": 568, "unit": "nM"},
      {"measurement": "IC50", "setting": "phospho-Akt (S473); 1 h, HOS (OS), phospho-Akt S473 normalized to total Akt, read-out: Buparlisib Akt phosphorylation IC50", "result": 222, "unit": "nM"},
      {"measurement": "IC50", "setting": "phospho-Akt (S473); 1 h, KHOS (OS), phospho-Akt S473 normalized to total Akt, read-out: Buparlisib Akt phosphorylation IC50", "result": 109, "unit": "nM"},
      {"measurement": "IC50", "setting": "phospho-Akt (S473); 1 h, MNNG (OS), phospho-Akt S473 normalized to total Akt, read-out: Buparlisib Akt phosphorylation IC50", "result": 296, "unit": "nM"},
      {"measurement": "IC50", "setting": "phospho-Akt (S473); 1 h, RD (RMS), phospho-Akt S473 normalized to total Akt, read-out: Buparlisib Akt phosphorylation IC50", "result": 166, "unit": "nM"},
      {"measurement": "IC50", "setting": "phospho-Akt (S473); 1 h, SJCRH30 (RMS), phospho-Akt S473 normalized to total Akt, read-out: Buparlisib Akt phosphorylation IC50", "result": 200, "unit": "nM"},
      {"measurement": "IC50", "setting": "phospho-Akt (S473); 1 h, TC-174 (ES), phospho-Akt S473 normalized to total Akt, read-out: Buparlisib Akt phosphorylation IC50", "result": 313, "unit": "nM"},
      {"measurement": "IC50", "setting": "phospho-Akt (S473); 1 h, range over the cell lines tested, largest values in cell lines that lack PTEN expression, read-out: phospho-Akt (S473) IC50, range over cell lines", "result": "64 to 916", "unit": "nM"},
      {"measurement": "IC50", "setting": "phospho-Akt (S473); A4573, 1 h, A4573 (ES), phospho-Akt S473 normalized to total Akt, read-out: Buparlisib Akt phosphorylation IC50", "result": 916, "unit": "nM"},
      {"measurement": "IC50", "setting": "phospho-Akt (S473); Homo sapiens, A204, 1 h, A204 (RMS), phospho-Akt S473 normalized to total Akt, read-out: Buparlisib Akt phosphorylation IC50", "result": 63.7, "unit": "nM"},
      {"measurement": "IC50", "setting": "phospho-Akt (S473); Homo sapiens, MCF7, 1 h, MCF-7 (breast), PIK3CA E545K, phospho-Akt S473 normalized to total Akt, read-out: Buparlisib Akt phosphorylation IC50", "result": 251, "unit": "nM"},
      {"measurement": "IC50", "setting": "phospho-Akt (S473); Homo sapiens, TC-32, 1 h, TC-32 (ES), phospho-Akt S473 normalized to total Akt, read-out: Buparlisib Akt phosphorylation IC50", "result": 280, "unit": "nM"},
      {"measurement": "IC50", "setting": "phospho-Akt (S473); KHOS-240S, 1 h, KHOS 240S (OS), phospho-Akt S473 normalized to total Akt, read-out: Buparlisib Akt phosphorylation IC50", "result": 198, "unit": "nM"},
      {"measurement": "rapamycin-mediated Akt activation", "setting": "phospho-Akt (S473); buparlisib added to rapamycin, A4573 cells", "result": "reduced rapamycin-mediated Akt activation"},
      {"measurement": "Phosphorylation of Akt at serine 473 and threonine 308", "setting": "phospho-Akt (S473); increasing doses, one hour of treatment, TC-32, KHOS, RD", "result": "inhibited"},
      {"measurement": "IC50", "setting": "[1]; ES and RMS cell lines in general, 72 h, read-out: cell viability IC50", "result": "~1000", "unit": "nM"},
      {"measurement": "concentrations at which synergistic effects were observed", "setting": "[1]; buparlisib concentration in combination therapy", "result": "under 1 μM"},
      {"measurement": "combination effect on cell viability", "setting": "[1]; combined with rapamycin, four cell lines (TC-32, A673, RD, A4573), 72 h", "result": "Synergy"},
      {"measurement": "combination effect on cell viability", "setting": "[1]; combined with trametinib, cell lines with (A673, RD) and without (TC-32, A4573) MAPK pathway mutations, 72 h", "result": "Synergistic effects were only observed in cell lines that contained MAPK pathway mutations"},
      {"measurement": "combination effect on cell viability", "setting": "[1]; in combination with NVP-AEW541, ES and RMS cell lines, 72 h", "result": "Synergy"},
      {"measurement": "combination effect on cell viability", "setting": "[1]; in combination with NVP-AEW541, OS cell lines (MNNG), 72 h", "result": "additive effects"},
      {"measurement": "IC50", "setting": "[1]; median over sarcoma cell lines, 72 h, read-out: median IC50 value, cellular proliferation", "result": 1100, "unit": "nM"},
      {"measurement": "combination effect on cell viability", "setting": "[1]; sequential treatment doxorubicin (4 h) then buparlisib (72 h), ratio 20:3, ES and OS cell lines", "result": "additive"},
      {"measurement": "specificity to PI3K versus other protein kinases", "setting": "PI3K", "result": "at least 50 fold"}
    ]}
  ]
}
